pIC50: −log10 of the molar value. Where two headings read alike, the source gives them in different places.
Experiments:
[1] = test system: P. falciparum male gametocytes; assay: P. falciparum Dual Gamete Formation Assay (PfDGFA), male readout (exflagellation); assay type: cell-based, Plasmodium falciparum NF54; conditions: for Selectivity Ratio M: HepG2 Tox50 versus male IC50
How it was run: (§1)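 Two sex-specific readouts come from one well: male exflagellation centres recorded by brightfield video right after activation, and female gametes scored by Cy3-anti-Pfs25 fluorescence after 24 h at 28°C.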

[2] = test system: P. falciparum female gametocytes; assay: P. falciparum Dual Gamete Formation Assay (PfDGFA), female readout (Pfs25-positive female gametes); assay type: cell-based, Plasmodium falciparum NF54; conditions: for Selectivity ratio F: HepG2 Tox50 versus female IC50
How it was run: as §1

HepG2 cells = assay: HepG2 cytotoxicity counter-screen; conditions: for Mean TOX: mean of the HepG2 TOX50 values; for DGFA Tox50 HepG2: HepG2 value reported with the DGFA screen; for Tox50: cytotoxic activity against HepG2 cells
[3] = this study, read-out: Pf DGFA IC50 MALE
[4] = this study, read-out: Pf DGFA IC50 FEM
[5] = 2µM, 24h preincubation with gametocytes, average of replicates
[6] = 2µM, 24h preincubation with gametocytes, replicate R1
[7] = 2µM, 24h preincubation with gametocytes, replicate R3
[8] = 2µM, 24h preincubation with gametocytes, replicate R4
[9] = PfDGFA at 2µM, 24h preincubation with gametocytes prior to induction of gametogenesis, replicate R1
[10] = PfDGFA at 2µM, 24h preincubation with gametocytes prior to induction of gametogenesis, replicate R3
[11] = PfDGFA at 2µM, 24h preincubation with gametocytes prior to induction of gametogenesis, replicate R4
[12] = PfDGFA at 2µM, 24h preincubation, average of replicates

Row | Compound | Cytotox ratio Pf Male [1] | pIC50 [1, 3] | Cytotox ratio Pf Female [2] | pIC50 [2, 4] | Mean TOX (HepG2 cells) [µM] | also measured
1 | C=CCNc1cc(-c2ccccn2)nc(-c2ccccn2)n1 [TC01] | 13.8 | 6.04 | 2.6 | 5.31 | 12.58 | 
2 | c1ccc2[nH]c(CN(Cc3nc4ccccc4[nH]3)Cc3nc4ccccc4[nH]3)nc2c1 [TC03] | 14.8 | 5.17 | 10.0 |  | 100.00 | DGFA Tox50 HepG2 (HepG2 cells): 100 µM
3 | FC(F)(F)c1cccc(NC(=S)NN=Cc2ccccn2)c1 [TC06] | 142.9 | 6.15 | 142.9 | 6.15 | 100.00 | DGFA Tox50 HepG2 (HepG2 cells): 100 µM
4 | O=C(Cc1cccc(O)c1)NCC(Cc1ccc(O)cc1)c1ccccc1 (stereo not shown) [TC08] | 58.1 | 5.76 | 10.0 |  | 100.00 | DGFA Tox50 HepG2 (HepG2 cells): 100 µM
5 | N=C(N)NCCN(Cc1ccccc1)c1ccc(Cl)cc1 [TC09] | 72.7 | 6.17 | 7.5 | 5.19 | 48.68 | 
6 | O=C(NC1CCN(Cc2ccccc2)CC1)c1cc(C(=O)NC2CCN(Cc3ccccc3)CC2)cc(C(=O)NC2CCN(Cc3ccccc3)CC2)c1 [TC20] | 13.0 | 5.11 | 10.0 |  | 100.00 | DGFA Tox50 HepG2 (HepG2 cells): 100 µM
7 | CC(C)S(=O)(=O)N1CCN(Cc2ccc3c(c2)nc(NC(=O)c2ccsc2)n3C[C@H](O)c2ccccc2)CC1 [TC25] | 20.7 | 6.39 | 0.848 |  | 8.48 | 
8 | Oc1cccc(CNCCCN(Cc2ccccc2)c2ccccc2)c1 [TC30] | 13.1 | 5.97 | 1.8 | 5.11 | 13.84 | 
9 | Fc1ccc2[nH]c(-c3ccc(-c4ccc(CNCCN5CCNCC5)cc4)cc3)nc2c1.O=C(O)C(F)(F)F [TC31] | 12.1 | 5.62 | 2.9 |  | 28.84 | 
10 | COc1cc2c(cc1S(=O)(=O)c1ccc(COc3ccc(C(F)(F)F)cc3)cc1)CNCC2.Cl [TC36] | 12.0 | 5.86 | 1.7 |  | 16.60 | 
11 | O=C(c1ccc(-c2cnc3[nH]cc(-c4ccc(C(=O)N5CCOCC5)cc4)c3c2)cc1)N1CCOCC1 [TC43] | 65.9 | 6.36 | 2.9 |  | 28.99 | 
12 | CN1CCC(NCc2ccc(-c3cnc(NCc4ccccc4)nc3)cc2)CC1.O=C(O)C(F)(F)F [TC47] | 11.6 | 6.02 | 1.7 | 5.18 | 11.10 | 
13 | Cc1cccc(Nc2nc(NCCCCN)nc3cc[nH]c(=O)c23)c1.O=C(O)C(F)(F)F [TC51] | 75.4 | 6.42 | 2.9 |  | 28.66 | 
14 | CCCCNS(=O)(=O)c1ccc(NC(=O)c2cc([N+](=O)[O-])ccc2Cl)cc1 [TC52] | 270.3 | 6.43 | 13.2 | 5.12 | 100.00 | DGFA Tox50 HepG2 (HepG2 cells): 100 µM
15 | Cc1ccc(C)c(S(=O)(=O)NCC2CCN(Cc3ccc(O)cc3)CC2)c1.O=C(O)C(F)(F)F [TC53] | 54.7 | 5.83 | 8.2 |  | 81.55 | 
16 | CN1CCN(c2ccc(Nc3c4ccccc4nc4ccccc34)cc2)CC1 [TC57] | 45.2 | 6.23 | 3.0 | 5.05 | 26.65 | 
17 | CCn1c(-c2nonc2N)nc2c(-c3ccccc3)ncc(OCCCNCCCN3CCOCC3)c21.O=C(O)C(F)(F)F [TC62] | 11.8 | 5.86 | 2.5 | 5.19 | 16.12 | 
18 | COCCn1c(Sc2ncnc3sccc23)nc2ccccc21 [TC65] | 81.3 | 5.91 | 94.3 | 5.97 | 100.00 | DGFA Tox50 HepG2 (HepG2 cells): 100 µM
19 | CS(=O)(=O)Cc1ccc(Nc2ncc(Cl)c(Nc3cccnc3C(N)=O)n2)cc1.Cl [TC68] | 16.0 | 5.20 | 10.0 |  | 100.00 | DGFA Tox50 HepG2 (HepG2 cells): 100 µM
20 | Cl.O=C1Nc2ccc3ncccc3c2/C1=C/Nc1ccc(N2CCN(CCO)CC2)cc1 [TC71] | 225.8 | 6.82 | 3.4 |  | 33.87 | 
21 | CN(C)c1ccnc2ccc(NC(=O)Nc3ccnc4ccccc34)cc12 [TC74] | 13.3 | 5.77 | 3.8 | 5.23 | 22.68 | 
22 | CC(CO)(CO)NCc1cc2c3ccccc3c(CNC(C)(CO)CO)cc2c2ccccc12.CS(=O)(=O)O [TC76] | 15.0 | 6.06 | 2.7 | 5.32 | 13.04 | 
23 | CNC(=S)NN=C(C)c1ccccn1 [TCMDC-123475] |  |  |  |  |  | Average inhibition male (%) [1, 5]: 95.4%; % inhibition male (individual replicates) R1 [1, 6]: 96.5%; % inhibition male (individual replicates) R3 [1, 7]: 96.2%; % inhibition male (individual replicates) R4 [1, 8]: 91.6%; Selectivity Ratio M [1]: 0.29; pIC50 ([1]; PfDGFA, 24 h incubation with gametocytes before induction, exflagellation readout, read-out: Male IC50): 6.35; Average inhibition female (%) [2, 5]: 52.8%; % inhibition female (individual replicates) R1 [2, 6]: 38.7%; % inhibition female (individual replicates) R3 [2, 7]: 43.6%; % inhibition female (individual replicates) R4 [2, 8]: 50.7%; Selectivity ratio F [2]: 0.49; pIC50 ([2]; PfDGFA, 24 h incubation with gametocytes before induction, female gamete readout, read-out: Female IC50): 6.57; Tox50 (HepG2 cells): 0.13 µM
24 | O=C1SC(=Cc2ccc(O)c(O)c2)C(=O)N1c1ccccc1 [TCMDC-123491] |  |  |  |  | 36.79 | Selectivity Ratio M [1]: 21.44; Cytotox ratio Pf Male ([1]; Mean TOX HepG2 over DGFA IC50 MALE, GREEN = >10-fold, RED = <10-fold): 21.4; inhibition at 2 µM ([1]; Plasmodium falciparum, 2µM, 24h preincubation with gametocytes, average of replicates, read-out: Average inhibition male (%)): 96.8%; inhibition at 2 µM ([1]; Plasmodium falciparum, 2µM, 24h preincubation with gametocytes, replicate R1, read-out: % inhibition male (individual replicates) R1): 96%; inhibition at 2 µM ([1]; Plasmodium falciparum, 2µM, 24h preincubation with gametocytes, replicate R2, read-out: % inhibition male (individual replicates) R2): 93.5%; inhibition at 2 µM ([1]; Plasmodium falciparum, 2µM, 24h preincubation with gametocytes, replicate R3, read-out: % inhibition male (individual replicates) R3): 98.6%; inhibition at 2 µM ([1]; Plasmodium falciparum, 2µM, 24h preincubation with gametocytes, replicate R4, read-out: % inhibition male (individual replicates) R4): 98.9%; pIC50 ([1]; Plasmodium falciparum, PfDGFA, 24 h incubation with gametocytes before induction, exflagellation readout, read-out: Male IC50): 5.76; Selectivity ratio F [2]: 4.36; Cytotox ratio Pf Female ([2]; Mean TOX HepG2 over DGFA IC50 FEM, GREEN = >10-fold, RED = <10-fold): 4.4; inhibition at 2 µM ([2]; Plasmodium falciparum, 2µM, 24h preincubation with gametocytes, average of replicates, read-out: Average inhibition female (%)): 28.5%; inhibition at 2 µM ([2]; Plasmodium falciparum, 2µM, 24h preincubation with gametocytes, replicate R1, read-out: % inhibition female (individual replicates) R1): 24.6%; inhibition at 2 µM ([2]; Plasmodium falciparum, 2µM, 24h preincubation with gametocytes, replicate R2, read-out: % inhibition female (individual replicates) R2): 17.5%; inhibition at 2 µM ([2]; Plasmodium falciparum, 2µM, 24h preincubation with gametocytes, replicate R3, read-out: % inhibition female (individual replicates) R3): 26.8%; inhibition at 2 µM ([2]; Plasmodium falciparum, 2µM, 24h preincubation with gametocytes, replicate R4, read-out: % inhibition female (individual replicates) R4): 45.3%; pIC50 ([2]; Plasmodium falciparum, PfDGFA, 24 h incubation with gametocytes before induction, female gamete readout, read-out: Female IC50): 5.07; Tox50 (HepG2 cells): 36.79 µM
25 | O=c1c(NCCCN(Cc2ccc(F)cc2)c2ccccn2)c(NCc2ccncc2)c1=O [TCMDC-142310] |  |  |  |  |  | % inhibition male (individual replicates) R1 [1, 9]: -3.0%; % inhibition male (individual replicates) R3 [1, 10]: -19.8%; % inhibition male (individual replicates) R4 [1, 11]: -2.5%; Average inhibition male (%) [1, 12]: -8.8%; % inhibition female (individual replicates) R1 [2, 9]: 6.5%; % inhibition female (individual replicates) R3 [2, 10]: -28.2%; % inhibition female (individual replicates) R4 [2, 11]: -7.1%; Average inhibition female (%) [2, 12]: -7.2%
